Laboratory results: PMC11505029, “Isatin Bis-Imidathiazole Hybrids Identified as FtsZ Inhibitors with On-Target Activity Against Staphylococcus aureus” (Antibiotics, 2024)
Read-outs that look alike come from different tables or passages of the source.

Legend:
[1] = test system: Vero cell line (ATCC CCL-81); test: cell viability and proliferation assay (WST8/CCK-8); assay type: cell-based; conditions: for viability at 100 µM: Chlorocebus sabaeus, Vero, 48 h, read-out: Cell proliferation, Vero
Method: (§1) Vero cell line (ATCC CCL-81) was selected as the model system to assess the effect of the isatin hybrids on normal epithelial cells, and a previously established protocol was used with minor modifications. Briefly, cells were cultured in RPMI-1640 medium supplemented with 10% fetal bovine serum (FBS) (Carlo Erba Reagents, Milan, Italy), 100 U/mL penicillin, and 100 µg/mL streptomycin at 37 °C with 5% CO2. For experiments, cells were seeded into 96-well plates at 10^4 cells/well, and incubated at 37 °C for 24 h. Following washes with PBS, the cell monolayer was incubated with 100 µL of medium containing the 2-fold serial dilutions of the compounds. Both untreated cells and cells incubated with medium containing solvent dilutions were included in each experiment as controls. The cell viability was assessed by a WST8-based assay according to the manufacturer’s instructions (CCK-8, Cell Counting Kit-8, Dojindo Molecular Technologies, Rockville, MD, USA). After 48 h of incubation, culture medium was removed from each well, the monolayer was washed with PBS, and 100 µL of fresh medium containing 10 µL of CCK-8 solution were added. After 2 h at 37 °C, the OD450nm was read, and data were expressed as the percentage of the cell viability relative to the untreated controls. The CC50 was obtained from the corresponding dose–response curves generated, as previously reported for IC50 values.

E. coli ATCC 25922 = test: broth microdilution antimicrobial activity, E. coli reference strain; assay type: cell-based, Escherichia coli; conditions: Escherichia coli
Method: (§2) Reference bacterial strains of Staphylococcus aureus (ATCC 25923), Escherichia coli (ATCC 25922), and Candida albicans (ATCC 10231) were used in this study as Gram-positive, Gram-negative, and fungal models, respectively. These reference strains were purchased from the American Type Culture Collection (ATCC, Manassas, VA, USA); bacterial cultures were routinely grown at 37 °C on 5% blood agar plate, while fungal cultures on Sabouraud Dextrose Agar (Biolife Italiana S.r.l., Milan, Italy).
(§3) The dry powder of the isatin derivatives was resuspended in dimethylsulfoxide (DMSO) at 20 mM and used as stock solutions. For biological investigations, compounds were used in the range 100–0.78 µM, and the solvent in the corresponding percentage range.
(§4) The antimicrobial activity of the compounds was assessed by a well-established broth microdilution procedure in microtiter plates and in compliance with the Clinical and laboratory Standard Institute (CLSI) guidelines (Clinical and Laboratory Standards Institute, Wayne, PA, USA). In short, microbial inocula were prepared at 0.5 McFarland in PBS and, subsequently, bacterial suspensions were diluted 1:200 in Mueller–Hinton broth (Sigma-Aldrich, St. Louis, MO, USA), while fungal inoculum was diluted 1:20 in RPMI-1640 medium (Gibco®, ThermoFisher Scientific Inc., Waltham, MA, USA), containing 2% glucose and 0.3% levo-glutamine buffered to pH 7.0 with 0.165 M 3-(N-morpholino)propanesulfonic acid (MOPS). A total of 100 µL of these microbial suspensions were introduced in a 96-well microplate and incubated with 100 µL of the compounds, two-fold serially diluted in the range of 100–0.19 µM. Positive controls (microbial suspensions in regular media), negative controls (only compounds), and solvent controls (microbial suspensions incubated with DMSO dilutions) were included in the tests. The plate was incubated at 37 °C for 24 h, and subsequently, the optical density at 630 nm (OD630nm) was spectrophotometrically measured. Each experiment was carried out with three technical replicates (i.e., three wells per sample) and repeated at least two times for statistical power. […] IC50 values, corresponding to the concentration of the compound giving rise to an inhibition of growth of 50%, were obtained by interpolation on dose–response curves generated by plotting the percentages of growth inhibition, relative to the positive control (set to 100% of growth), as a function of the tested concentrations (on a logarithm scale). Statistical analysis was carried out using GraphPad Prism version 9.4.1 for Windows (GraphPad Software, San Diego, CA, USA, www.graphpad.com).

S. aureus ATCC 25923 = test: broth microdilution antimicrobial activity, S. aureus reference strain; assay type: cell-based, Staphylococcus aureus; conditions: for activity at 100 µM / IC50: Staphylococcus aureus; for IC50: ATCC25923, S. aureus ATCC 25923, mean [95% confidence interval]
Method: as §2, §3, §4

C. albicans ATCC 10231 = test: broth microdilution antimicrobial activity, C. albicans reference strain; assay type: cell-based, Candida albicans; conditions: Candida albicans
Method: as §2, §3, §4

[2] = cell viability and proliferation assay (WST8/CCK-8); assay type: cell-based; conditions: African green monkey, Vero cells (ATCC CCL-81); Vero cells; mean [95% confidence interval]
Method: as §1

[3] = 100 μM, viability relative to untreated controls, mean ± SD
[4] = ATCC25922, 100 μM, growth relative to positive control, mean ± SD, read-out: Microbial growth, E. coli
[5] = ATCC25923, 100 μM, growth relative to positive control, mean ± SD, read-out: Microbial growth, S. aureus
[6] = ATCC10231, 100 μM, growth relative to positive control, mean ± SD, read-out: Microbial growth, C. albicans
[7] = ATCC25922, read-out: Microbial growth, E. coli
[8] = ATCC25923, read-out: Microbial growth, S. aureus
[9] = ATCC10231, read-out: Microbial growth, C. albicans

| SMILES | viability at 100 µM [1, 3] | activity at 100 µM (E. coli ATCC 25922; [4]) | activity at 100 µM (S. aureus ATCC 25923; [5]) | activity at 100 µM (C. albicans ATCC 10231; [6]) | other results |
| --- | --- | --- | --- | --- | --- |
| O=C1Nc2cc(F)ccc2C1(c1c(Cl)nc2sccn12)c1c(Cl)nc2sccn12 [Compound 7, 3,3-bis(6-Chloroimidazo[2,1-b]thiazol-5-yl)-6-fluoroindolin-2-one] | 88.2 ± 1.9% | 106 ± 2.1% | 76.9 ± 1.5% | 81.1 ± 0.7% |  |
| O=C1N(Cc2ccccc2)c2ccccc2C1(c1c(Cl)nc2sccn12)c1c(Cl)nc2sccn12 [Compound 13, 1-Benzyl-3,3-bis(6-chloroimidazo[2,1-b]thiazol-5-yl)indolin-2-one] | 56.8 ± 0.1% | 96.2 ± 4% | 92 ± 4% | 113.7 ± 0.7% | Cell proliferation, Vero [1, 3]: less active |
| Cc1cn2c(C3(c4c(Cl)nc5sc(C)cn45)C(=O)N(Cc4ccc(Cl)cc4)c4ccccc43)c(Cl)nc2s1 [Compound 4, 3,3-bis(6-Chloro-2-methylimidazo[2,1-b]thiazol-5-yl)-1-(4-chlorobenzyl)indolin-2-one] | 116 ± 4% | 99 ± 2.9% | 98.7 ± 0.8% | 125 ± 6.3% |  |
| Cc1cn2c(C3(O)C(=O)Nc4cccc(C(F)(F)F)c43)c(Cl)nc2s1 (centres unmarked) [Compound 18, 3-(6-Chloro-2-methylimidazo[2,1-b]thiazol-5-yl)-3-hydroxy-4-(trifluoromethyl)indolin-2-one] |  |  |  |  | viability at 100 µM [1]: 93.1 ± 2.9%; activity at 100 µM (E. coli ATCC 25922; [7]): 109 ± 3.5%; activity at 100 µM (S. aureus ATCC 25923; [8]): 101 ± 3.1%; activity at 100 µM (C. albicans ATCC 10231; [9]): 97.1 ± 0.9% |
| O=C1Nc2ccc(F)cc2C1(c1c(Cl)nc2sccn12)c1c(Cl)nc2sccn12 [Compound 5, 3,3-bis(6-Chloroimidazo[2,1-b]thiazol-5-yl)-5-fluoroindolin-2-one] | 43.5 ± 3.3% | 98.9 ± 1.4% | < 30% | 102 ± 1.5% | CC50 at 48 h [2]: 116 µM; SI (selectivity index, CC50/IC50) (S. aureus ATCC 25923; CC50 Vero / IC50 S. aureus): 1.5; IC50 (S. aureus ATCC 25923): 75.6 µM |
| O=C1Nc2cccc(I)c2C1(O)c1c(Cl)nc2sccn12 (centres unmarked) [Compound 19, 3-(6-Chloroimidazo[2,1-b]thiazol-5-yl)-3-hydroxy-4-iodoindolin-2-one] |  |  |  |  | viability at 100 µM [1]: 98.9 ± 2.6%; activity at 100 µM (E. coli ATCC 25922; [7]): 95.2 ± 2.6%; activity at 100 µM (S. aureus ATCC 25923; [8]): 148 ± 4.8%; activity at 100 µM (C. albicans ATCC 10231; [9]): 131 ± 7.5% |
| O=C1Nc2cccc(C(F)(F)F)c2C1(O)c1c(Cl)nc2sccn12 (centres unmarked) [Compound 17, 3-(6-Chloroimidazo[2,1-b]thiazol-5-yl)-3-hydroxy-4-(trifluoromethyl)indolin-2-one] |  |  |  |  | viability at 100 µM [1]: 103.1 ± 1%; activity at 100 µM (E. coli ATCC 25922; [7]): 104 ± 1.6%; activity at 100 µM (S. aureus ATCC 25923; [8]): 149 ± 3.8%; activity at 100 µM (C. albicans ATCC 10231; [9]): 132 ± 3.9% |
| COc1cccc2c1C(=O)c1c(O)c3c(c(O)c1C2=O)C[C@@](O)(C(=O)CO)C[C@@H]3O[C@H]1C[C@H](N)[C@H](O)[C@H](C)O1 [DOX, doxorubicin, reference compound] |  |  |  |  | CC50 at 48 h [2]: 70.6 µM |
| O=C1Nc2cc(I)ccc2C1(c1c(Cl)nc2sccn12)c1c(Cl)nc2sccn12 [Compound 9, 3,3-bis(6-Chloroimidazo[2,1-b]thiazol-5-yl)-6-iodoindolin-2-one] | 98.2 ± 1.5% | 98.3 ± 2.5% | 80.2 ± 2.6% | 63.7 ± 1.2% |  |
| Cc1cn2c(C3(c4c(Cl)nc5sc(C)cn45)C(=O)N(CC=Cc4ccccc4)c4ccccc43)c(Cl)nc2s1 [Compound 16, 3,3-bis(6-Chloro-2-methylimidazo[2,1-b]thiazol-5-yl)-1-cinnamylindolin-2-one] | 93.3 ± 1.9% | 69.2 ± 0.9% | 69.1 ± 4.3% | 60.3 ± 1.1% |  |
| COc1ccc2c(c1)C(c1c(Cl)nc3sc(C)cn13)(c1c(Cl)nc3sc(C)cn13)C(=O)N2 [Compound 3, 3,3-bis(6-Chloro-2-methylimidazo[2,1-b]thiazol-5-yl)-5-methoxyindolin-2-one] | 90.3 ± 4.2% | 97 ± 1.8% | 104 ± 8.5% | 101 ± 3.6% |  |
| Cc1cn2c(C3(c4c(Cl)nc5sc(C)cn45)C(=O)Nc4cc(F)ccc43)c(Cl)nc2s1 [Compound 8, 3,3-bis(6-Chloro-2-methylimidazo[2,1-b]thiazol-5-yl)-6-fluoroindolin-2-one] | 75.2 ± 2.5% | 99.8 ± 2.6% | 97.9 ± 2.8% | 64.2 ± 4.3% |  |
| Cc1cn2c(C3(c4c(Cl)nc5sc(C)cn45)C(=O)Nc4ccc(F)cc43)c(Cl)nc2s1 [Compound 6, 3,3-bis(6-Chloro-2-methylimidazo[2,1-b]thiazol-5-yl)-5-fluoroindolin-2-one] | 38.2 ± 1.5% | 98.7 ± 0.9% | 101 ± 10.1% | 101 ± 1.9% |  |
| O=C1N(CC=Cc2ccccc2)c2ccccc2C1(c1c(Cl)nc2sccn12)c1c(Cl)nc2sccn12 [Compound 15, 3,3-bis(6-Chloroimidazo[2,1-b]thiazol-5-yl)-1-cinnamylindolin-2-one] | 101 ± 1.5% | 69.5 ± 1.8% | < 30% | 60.7 ± 1.7% | CC50 at 48 h [2]: > 100 µM; IC50 (S. aureus ATCC 25923): 90.1 µM |
| CC1(C)S[C@@H]2[C@H](NC(=O)[C@H](N)c3ccccc3)C(=O)N2[C@H]1C(=O)O [AMP, ampicillin, reference compound] |  |  |  |  | IC50 (S. aureus ATCC 25923): 2.56 µM |
| Cc1cn2c(C3(c4c(Cl)nc5sc(C)cn45)C(=O)N(Cc4ccccc4)c4ccccc43)c(Cl)nc2s1 [Compound 14, 1-Benzyl-3,3-bis(6-chloro-2-methylimidazo[2,1-b]thiazol-5-yl)indolin-2-one] | 104 ± 1.9% | 99 ± 0.4% | 107 ± 3.9% | 116 ± 1.2% |  |
| Cc1cn2c(C3(c4c(Cl)nc5sc(C)cn45)C(=O)Nc4cc(OC(F)(F)F)ccc43)c(Cl)nc2s1 [Compound 12, 3,3-bis(6-Chloro-2-methylimidazo[2,1-b]thiazol-5-yl)-6-(trifluoromethoxy)indolin-2-one] | 56.1 ± 1.1% | 96.6 ± 1% | 110 ± 12.8% | 118.1 ± 0.2% |  |
| Cc1cn2c(C3(O)C(=O)Nc4cccc(I)c43)c(Cl)nc2s1 (centres unmarked) [Compound 20, 3-(6-Chloro-2-methylimidazo[2,1-b]thiazol-5-yl)-3-hydroxy-4-iodoindolin-2-one] |  |  |  |  | viability at 100 µM [1]: 101 ± 2.4%; activity at 100 µM (E. coli ATCC 25922; [7]): 98 ± 1.3%; activity at 100 µM (S. aureus ATCC 25923; [8]): 104 ± 4%; activity at 100 µM (C. albicans ATCC 10231; [9]): 108 ± 2.7% |
| CNC(C)C1CCC(N)C(OC2C(N)CC(N)C(OC3OCC(C)(O)C(NC)C3O)C2O)O1 (centres unmarked) [GMN, gentamicin, reference compound] |  |  |  |  | IC50 (S. aureus ATCC 25923): 4 µM |
| Cc1cn2c(C3(c4c(Cl)nc5sc(C)cn45)C(=O)Nc4cc(I)ccc43)c(Cl)nc2s1 [Compound 10, 3,3-bis(6-Chloro-2-methylimidazo[2,1-b]thiazol-5-yl)-6-iodoindolin-2-one] | 78.8 ± 5.5% | 94.3 ± 2.7% | 87.7 ± 2.5% | 59.6 ± 0.4% |  |
